This passage reports EC50 results from ChEMBL document CHEMBL1145783, “Development of an orexin-2 receptor selective agonist, [Ala(11), D-Leu(15)]orexin-B” (Bioorg Med Chem Lett, 2003).

The EC50 is the concentration that produces a half-maximal response. A higher EC50 goes with lower potency in that assay.

The test concerns the target T1, Orexin receptor type 2 (Homo sapiens, UniProt O43614).
T1 sequence (O43614 whole entry): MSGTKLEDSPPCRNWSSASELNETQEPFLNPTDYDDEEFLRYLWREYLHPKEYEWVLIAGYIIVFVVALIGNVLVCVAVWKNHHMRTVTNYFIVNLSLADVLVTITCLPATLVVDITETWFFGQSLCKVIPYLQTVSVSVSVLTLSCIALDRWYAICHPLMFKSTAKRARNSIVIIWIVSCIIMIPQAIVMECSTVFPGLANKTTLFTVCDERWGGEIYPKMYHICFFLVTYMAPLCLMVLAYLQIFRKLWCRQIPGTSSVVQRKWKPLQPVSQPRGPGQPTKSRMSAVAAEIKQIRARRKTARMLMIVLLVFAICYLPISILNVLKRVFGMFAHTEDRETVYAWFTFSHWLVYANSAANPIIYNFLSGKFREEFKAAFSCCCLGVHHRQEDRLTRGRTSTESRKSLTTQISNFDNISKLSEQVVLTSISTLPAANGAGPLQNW
Kind of test: Agonist activity against human orexin 2 receptor; EC50; nM. The format is functional.
Take `CC[C@H](C)[C@H](NC(=O)[C@H](CC(C)C)NC(=O)[C@@H](NC(=O)[C@@H](N)CCSC)[C@@H](C)O)C(=O)NCC(=O)N[C@@H](C)C(=O)N[C@@H](C)C(=O)N[C@@H](Cc1cnc[nH]1)C(=O)N[C@@H](CC(N)=O)C(=O)NCC(=O)N[C@@H](CO)C(=O)N[C@@H](C)C(=O)N[C@@H](CCC(N)=O)C(=O)N[C@@H](CC(C)C)C(=O)N[C@@H](CC(C)C)C(=O)N[C@@H](CCCN=C(N)N)C(=O)N[C@@H](CCC(N)=O)C(=O)N[C@@H](C)C(=O)N[C@@H](CCCN=C(N)N)C(=O)NCC(=O)N[C@@H](CCC(N)=O)C(=O)N[C@@H](CC(C)C)C(=O)NCC(=O)N1CCC[C@H]1C(=O)N1CCC[C@H]1C(=O)NCC(=O)N[C@@H](CO)C(=O)N[C@@H](CCCN=C(N)N)C(N)=O`: the concentration for a half-maximal effect (EC50) is 0.066 nM.

For H-MTLIGAAHNGSAQLLAQLRGQLGPPGSR-NH2, the concentration for a half-maximal effect (EC50) turned out to be 0.13 nM.

`CC[C@H](C)[C@H](NC(=O)[C@H](CC(C)C)NC(=O)[C@@H](NC(=O)[C@@H](N)CCSC)[C@@H](C)O)C(=O)NCC(=O)N[C@@H](C)C(=O)N[C@@H](C)C(=O)N[C@H](Cc1cnc[nH]1)C(=O)N[C@@H](CC(N)=O)C(=O)NCC(=O)N[C@@H](CO)C(=O)N[C@@H](C)C(=O)N[C@@H](CCC(N)=O)C(=O)N[C@@H](CC(C)C)C(=O)N[C@@H](CC(C)C)C(=O)N[C@@H](CCCN=C(N)N)C(=O)N[C@@H](CCC(N)=O)C(=O)N[C@@H](CC(C)C)C(=O)N[C@@H](CCCN=C(N)N)C(=O)NCC(=O)N[C@@H](CCC(N)=O)C(=O)N[C@@H](CC(C)C)C(=O)NCC(=O)N1CCC[C@H]1C(=O)N1CCC[C@H]1C(=O)NCC(=O)N[C@@H](CO)C(=O)N[C@@H](CCCN=C(N)N)C(N)=O` had an EC50 of 1 nM.

H-MTLIGAAHNGSAQLLRALRGQLGPPGSR-NH2: the midpoint of the response, the EC50, lay at 0.23 nM.

On to H-MTLIGAAHNGSGQLLRQLRGQLGPPGSR-NH2, for which the response was half-maximal at 0.091 nM (EC50).

Consider H-MTLIGAAHNGSAQLLRQLAGQLGPPGSR-NH2, for which the EC50 turned out to be 0.77 nM.

Molecule `CC[C@H](C)[C@H](NC(=O)[C@H](CC(C)C)NC(=O)[C@@H](NC(=O)[C@@H](N)CCSC)[C@@H](C)O)C(=O)NCC(=O)N[C@@H](C)C(=O)N[C@H](C)C(=O)N[C@@H](Cc1cnc[nH]1)C(=O)N[C@@H](CC(N)=O)C(=O)NCC(=O)N[C@@H](CO)C(=O)N[C@@H](C)C(=O)N[C@@H](CCC(N)=O)C(=O)N[C@@H](CC(C)C)C(=O)N[C@@H](CC(C)C)C(=O)N[C@@H](CCCN=C(N)N)C(=O)N[C@@H](CCC(N)=O)C(=O)N[C@@H](CC(C)C)C(=O)N[C@@H](CCCN=C(N)N)C(=O)NCC(=O)N[C@@H](CCC(N)=O)C(=O)N[C@@H](CC(C)C)C(=O)NCC(=O)N1CCC[C@H]1C(=O)N1CCC[C@H]1C(=O)NCC(=O)N[C@@H](CO)C(=O)N[C@@H](CCCN=C(N)N)C(N)=O` showed an EC50 of 2.6 nM.

The molecule H-MTLIGGAHNGSAQLLRQLRGQLGPPGSR-NH2 came in with an EC50 of 0.84 nM.

`CC[C@H](C)[C@H](NC(=O)[C@H](CC(C)C)NC(=O)[C@@H](NC(=O)[C@@H](N)CCSC)[C@@H](C)O)C(=O)NCC(=O)N[C@@H](C)C(=O)N[C@@H](C)C(=O)N[C@@H](Cc1c[nH]cn1)C(=O)N[C@@H](CC(N)=O)C(=O)NCC(=O)N[C@@H](CO)C(=O)N[C@@H](C)C(=O)N[C@@H](CCC(N)=O)C(=O)N[C@@H](CC(C)C)C(=O)N[C@@H](CC(C)C)C(=O)N[C@@H](CCCN=C(N)N)C(=O)N[C@@H](CCC(N)=O)C(=O)N[C@@H](CC(C)C)C(=O)N[C@@H](CCCN=C(N)N)C(=O)NCC(=O)N[C@@H](CCC(N)=O)C(=O)N[C@@H](CC(C)C)C(=O)NCC(=O)N1CCC[C@@H]1C(=O)N1CCC[C@H]1C(=O)NCC(=O)N[C@@H](CO)C(=O)N[C@@H](CCCN=C(N)N)C(N)=O` gave an EC50 of 0.16 nM.

H-MTLIGAAHNGSAQLLRQLRGALGPPGSR-NH2 came in with an EC50 of 0.46 nM.

Take H-ATLIGAAHNGSAQLLRQLRGQLGPPGSR-NH2: a half-maximal response (EC50) required 15 nM.

For `CC[C@H](C)[C@H](NC(=O)[C@H](CC(C)C)NC(=O)[C@@H](NC(=O)[C@@H](N)CCSC)[C@@H](C)O)C(=O)NCC(=O)N[C@@H](C)C(=O)N[C@@H](C)C(=O)N[C@@H](Cc1c[nH]cn1)C(=O)N[C@@H](CC(N)=O)C(=O)NCC(=O)N[C@@H](CO)C(=O)N[C@@H](C)C(=O)N[C@@H](CCC(N)=O)C(=O)N[C@@H](CC(C)C)C(=O)N[C@@H](CC(C)C)C(=O)N[C@@H](CCCN=C(N)N)C(=O)N[C@@H](CCC(N)=O)C(=O)N[C@@H](CC(C)C)C(=O)N[C@H](CCCN=C(N)N)C(=O)NCC(=O)N[C@@H](CCC(N)=O)C(=O)N[C@@H](CC(C)C)C(=O)NCC(=O)N1CCC[C@H]1C(=O)N1CCC[C@H]1C(=O)NCC(=O)N[C@@H](CO)C(=O)N[C@@H](CCCN=C(N)N)C(N)=O`, the EC50 amounted to 0.87 nM.

On to `CC[C@H](C)[C@H](NC(=O)[C@@H](CC(C)C)NC(=O)[C@@H](NC(=O)[C@@H](N)CCSC)[C@@H](C)O)C(=O)NCC(=O)N[C@@H](C)C(=O)N[C@@H](C)C(=O)N[C@@H](Cc1cnc[nH]1)C(=O)N[C@@H](CC(N)=O)C(=O)NCC(=O)N[C@@H](CO)C(=O)N[C@@H](C)C(=O)N[C@@H](CCC(N)=O)C(=O)N[C@@H](CC(C)C)C(=O)N[C@@H](CC(C)C)C(=O)N[C@@H](CCCN=C(N)N)C(=O)N[C@@H](CCC(N)=O)C(=O)N[C@@H](CC(C)C)C(=O)N[C@@H](CCCN=C(N)N)C(=O)NCC(=O)N[C@@H](CCC(N)=O)C(=O)N[C@@H](CC(C)C)C(=O)NCC(=O)N1CCC[C@H]1C(=O)N1CCC[C@H]1C(=O)NCC(=O)N[C@@H](CO)C(=O)N[C@@H](CCCN=C(N)N)C(N)=O`, for which the EC50 was > 200 nM.

The molecule `CC[C@H](C)[C@H](NC(=O)[C@H](CC(C)C)NC(=O)[C@@H](NC(=O)[C@@H](N)CCSC)[C@@H](C)O)C(=O)NCC(=O)N[C@H](C)C(=O)N[C@@H](C)C(=O)N[C@@H](Cc1c[nH]cn1)C(=O)N[C@@H](CC(N)=O)C(=O)NCC(=O)N[C@@H](CO)C(=O)N[C@@H](C)C(=O)N[C@@H](CCC(N)=O)C(=O)N[C@@H](CC(C)C)C(=O)N[C@@H](CC(C)C)C(=O)N[C@@H](CCCN=C(N)N)C(=O)N[C@@H](CCC(N)=O)C(=O)N[C@@H](CC(C)C)C(=O)N[C@@H](CCCN=C(N)N)C(=O)NCC(=O)N[C@@H](CCC(N)=O)C(=O)N[C@@H](CC(C)C)C(=O)NCC(=O)N1CCC[C@H]1C(=O)N1CCC[C@H]1C(=O)NCC(=O)N[C@@H](CO)C(=O)N[C@@H](CCCN=C(N)N)C(N)=O` registered an EC50 of 14 nM.

With `CC[C@H](C)[C@H](NC(=O)[C@H](CC(C)C)NC(=O)[C@@H](NC(=O)[C@@H](N)CCSC)[C@@H](C)O)C(=O)NCC(=O)N[C@@H](C)C(=O)N[C@@H](C)C(=O)N[C@@H](Cc1c[nH]cn1)C(=O)N[C@@H](CC(N)=O)C(=O)NCC(=O)N[C@@H](CO)C(=O)N[C@@H](C)C(=O)N[C@@H](CCC(N)=O)C(=O)N[C@@H](CC(C)C)C(=O)N[C@@H](CC(C)C)C(=O)N[C@@H](CCCN=C(N)N)C(=O)N[C@@H](CCC(N)=O)C(=O)N[C@@H](CC(C)C)C(=O)N[C@@H](CCCN=C(N)N)C(=O)NCC(=O)N[C@@H](CCC(N)=O)C(=O)N[C@H](CC(C)C)C(=O)NCC(=O)N1CCC[C@H]1C(=O)N1CCC[C@H]1C(=O)NCC(=O)N[C@@H](CO)C(=O)N[C@@H](CCCN=C(N)N)C(N)=O`, the EC50 turned out to be 0.084 nM.

With H-MTLIGAAHNGSAALLRQLRGQLGPPGSR-NH2, the response was half-maximal at 0.13 nM (EC50).

`CC[C@H](C)[C@H](NC(=O)[C@H](CC(C)C)NC(=O)[C@@H](NC(=O)[C@@H](N)CCSC)[C@@H](C)O)C(=O)NCC(=O)N[C@@H](C)C(=O)N[C@@H](C)C(=O)N[C@@H](Cc1c[nH]cn1)C(=O)N[C@@H](CC(N)=O)C(=O)NCC(=O)N[C@@H](CO)C(=O)N[C@@H](C)C(=O)N[C@@H](CCC(N)=O)C(=O)N[C@@H](CC(C)C)C(=O)N[C@@H](CC(C)C)C(=O)N[C@@H](CCCN=C(N)N)C(=O)N[C@H](CCC(N)=O)C(=O)N[C@H](CC(C)C)C(=O)N[C@@H](CCCN=C(N)N)C(=O)NCC(=O)N[C@@H](CCC(N)=O)C(=O)N[C@@H](CC(C)C)C(=O)NCC(=O)N1CCC[C@H]1C(=O)N1CCC[C@H]1C(=O)NCC(=O)N[C@@H](CO)C(=O)N[C@@H](CCCN=C(N)N)C(N)=O` displayed an EC50 of 0.11 nM.

`CC[C@H](C)[C@H](NC(=O)[C@H](CC(C)C)NC(=O)[C@@H](NC(=O)[C@@H](N)CCSC)[C@@H](C)O)C(=O)NCC(=O)N[C@@H](C)C(=O)N[C@@H](C)C(=O)N[C@@H](Cc1c[nH]cn1)C(=O)N[C@@H](CC(N)=O)C(=O)NCC(=O)N[C@@H](CO)C(=O)N[C@@H](C)C(=O)N[C@@H](CCC(N)=O)C(=O)N[C@@H](CC(C)C)C(=O)N[C@@H](CC(C)C)C(=O)N[C@@H](CCCN=C(N)N)C(=O)N[C@@H](CCC(N)=O)C(=O)N[C@@H](CC(C)C)C(=O)N[C@@H](CCCN=C(N)N)C(=O)NCC(=O)N[C@@H](CCC(N)=O)C(=O)N[C@@H](CC(C)C)C(=O)NCC(=O)N1CCC[C@H]1C(=O)N1CCC[C@@H]1C(=O)NCC(=O)N[C@@H](CO)C(=O)N[C@@H](CCCN=C(N)N)C(N)=O` came in with a 50% effective concentration (EC50) of 0.15 nM.

For H-MTLIGAAHNGSAQLLRQLRGQLGPPGAR-NH2, it took 0.22 nM to reach a half-maximal effect (EC50).

Turning to H-MTLIGAAHNGAAQLLRQLRGQLGPPGSR-NH2, the concentration for a half-maximal effect (EC50) is 1.6 nM.

Molecule `CC[C@H](C)[C@H](NC(=O)[C@H](CC(C)C)NC(=O)[C@@H](NC(=O)[C@@H](N)CCSC)[C@@H](C)O)C(=O)NCC(=O)N[C@@H](C)C(=O)N[C@@H](C)C(=O)N[C@@H](Cc1cnc[nH]1)C(=O)N[C@@H](CC(N)=O)C(=O)NCC(=O)N[C@@H](CO)C(=O)N[C@@H](C)C(=O)N[C@@H](CCC(N)=O)C(=O)N[C@@H](CC(C)C)C(=O)N[C@@H](CC(C)C)C(=O)N[C@@H](CCCN=C(N)N)C(=O)N[C@@H](CCC(N)=O)C(=O)N[C@@H](CC(C)C)C(=O)N[C@@H](CCCN=C(N)N)C(=O)NCC(=O)N[C@H](CCC(N)=O)C(=O)N[C@@H](CC(C)C)C(=O)NCC(=O)N1CCC[C@H]1C(=O)N1CCC[C@H]1C(=O)NCC(=O)N[C@@H](CO)C(=O)N[C@@H](CCCN=C(N)N)C(N)=O` came in with a concentration giving a half-maximal response (EC50) of 0.32 nM.

In turn, H-MTLIGAAANGSAQLLRQLRGQLGPPGSR-NH2 gave an EC50 of 0.72 nM.
